Source: US8642632B2, “Selective androgen receptor modulators” (Radius Health, Inc., priority 2010, dated 2014)
pIC50: −log10 of the molar value.

How the values were obtained:
androgen receptor = target: T1, androgen receptor (Rattus norvegicus, UniProt P15207); assay: androgen receptor binding assay (fluorescence polarization, Invitrogen AR-Fluormone)
T1 construct: purchased Invitrogen, Madison, Wis
T1 sequence (P15207 651-902 limits assumed): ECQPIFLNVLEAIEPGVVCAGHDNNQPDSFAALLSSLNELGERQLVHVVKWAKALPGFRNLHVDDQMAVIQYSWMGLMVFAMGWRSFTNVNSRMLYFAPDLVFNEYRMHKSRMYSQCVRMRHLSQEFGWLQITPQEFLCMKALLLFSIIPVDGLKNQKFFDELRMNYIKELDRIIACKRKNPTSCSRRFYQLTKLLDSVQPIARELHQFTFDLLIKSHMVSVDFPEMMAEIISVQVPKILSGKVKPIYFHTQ
Procedure: The assay was performed as specified by the manufacturer (Invitrogen, Madison, Wis.). Briefly, 1 μl of 10 mM compound was added to 500 μl of AR screening buffer in a 1.5 ml eppendorf tube to make a 2×10^−5M stock. 10-fold serial dilutions of the test compounds were prepared ranging in concentration from 10^−5M to 10^−12M. Each dilution was added in triplicate to a black 384-microtiter plate. The test compounds will be diluted 2-fold in the final reaction. 2×AR-Fluormone™ complex was prepared with 2 nM Flourmone AL Green™ and 30 nM AR. 25 μl of 2× complex was aliquoted to each reaction well, such that the final reaction volume was 50 μl per well. Plate was sealed with a foil cover and incubated in the dark at room temperature for 4 h. Polarization values for each well were measured. The polarization values were plotted against the concentration of the test compound. The concentration of the test compound that results in half-maximum shift equals the IC50 of the test compound. As a control, a competition curve for R1881 (methyltrienolone) was performed for each assay. Curve Fitting was performed using GraphPad Prism® software from GraphPad™ Software Inc. Binding data are reported as a single determination if the experiment was run once only and as the average of experiments if the binding experiment was performed two or more times with that compound.
The binding data shown in table 1 (below) is from the result of a single or multiple determinations based on the same compound. Where multiple data points have been taken, the value reported is the average of the multiple determinations.

castrated rat = assay: In vivo rat model of androgen and anabolic activity - rat Herschberger assay; details: 3 mg/kg orally, once daily for 4 days, compared with Sham and testosterone propionate (TP) controls
Text: Organ and muscle weight is on Y-axis and the numbers refer to weight in milligrams. *ρ<0.05 compared to vehicle. ^ρ<0.05 compared to TP and sham.
The following is a typical procedure of the in vivo evaluation of the selective androgens of this invention. In particular, this assay looks primarily at the ability of the selective androgens of this invention to increase muscle size in an immature, castrated rat. In addition, androgenic effects are looked at primarily by weighing the prostate and seminal vesicles. Selective compounds will show a greater increase in the levator ani relative to the prostate and seminal vesicles when compared to testosterone treated, castrated animals or to intact animals that have not been treated. Immature Sprague Dawley male rats were obtained Charles River Laboratories (Stoneridge, N.Y.). All animals were maintained in a temperature and humidity controlled room with a 12 hr light: 12 hr dark cycle, with ad lib access to food (TD 291615, Teklad, Madison, Wis.) and water. Rats were anesthetized and orchidectomized (GDX) or sham surgery (SHAM) was performed. […] The prostate, seminal vesicle and levator ani and bulba cavernous (LABC) tissues were removed, weighed and recorded. Body weights were recorded for each animal at baseline and at sacrifice.

Structure (SMILES)	pIC50 (androgen receptor)	levator ani muscle (LABC) weight (castrated rat)
CC(C)(O)[C@@H](Nc1ccc(C#N)c(C(F)(F)F)c1)c1nnc(-c2ccc(F)cc2)o1 [Example 1, (R)-4-(1-(5-(4-fluorophenyl)-1,3,4-oxadiazol-2-yl)-2-hydroxy-2-methylpropylamino)-2-(trifluoromethyl)benzonitrile]	< 6.00	
CCCc1c(N[C@@H](c2nnc(-c3ccc(C#N)cc3)o2)[C@H](C)O)ccc(C#N)c1Cl [Example 4, 2-Chloro-4-((1R,2S)-1-(5-(4-cyanophenyl)-1,3,4-oxadiazol-2-yl)-2-hydroxypropylamino)-3-propylbenzonitrile]	9.52	
Cc1c(N[C@@H](c2nnc(-c3ccc(F)cc3)o2)C(C)(C)O)ccc(C#N)c1Cl [Example 5, (R)-2-chloro-4-(1-(5-(4-fluorophenyl)-1,3,4-oxadiazol-2-yl)-2-hydroxy-2-methylpropylamino)-3-methylbenzonitrile]	8.22	significantly above the non-castrated control (Sham) and testosterone propionate-treated (TP) controls
Cc1c(N[C@@H](c2nnc(-c3ccc(C#N)cc3)o2)C(C)(C)O)ccc(C#N)c1Cl [Example 6, (R)-2-chloro-4-(1-(5-(4-cyanophenyl)-1,3,4-oxadiazol-2-yl)-2-hydroxy-2-methylpropylamino)-3-methylbenzonitrile]	8.40	
Cc1c(N[C@@H](c2nnc(-c3ccc(C#N)cc3)o2)C(C)(C)O)ccc(C#N)c1C(F)(F)F [Example 3, (R)-4-(1-(5-(4-cyanophenyl)-1,3,4-oxadiazol-2-yl)-2-hydroxy-2-methylpropylamino)-3-methyl-2-(trifluoromethyl)benzonitrile]	7.52	
Cc1c(N[C@@H](c2nnc(-c3ccc(C#N)cc3)o2)[C@H](O)C(F)(F)F)ccc(C#N)c1Cl [Example 7, 2-chloro-4-((1R,2S)-1-(5-(4-cyanophenyl)-1,3,4-oxadiazol-2-yl)-3,3,3-trifluoro-2-hydroxypropylamino)-3-methylbenzonitrile]	6.54	
Cc1c(N[C@@H](c2nnc(-c3ccc(F)cc3)o2)C(C)(C)O)ccc(C#N)c1C(F)(F)F [Example 2, (R)-4-(1-(5-(4-fluorophenyl)-1,3,4-oxadiazol-2-yl)-2-hydroxy-2-methylpropylamino)-3-methyl-2-(trifluoromethyl)benzonitrile]	7.40	
